Experimental data published in ChEMBL document CHEMBL3046245, “Effects of Ginkgo biloba constituents on fruit-infesting behavior of codling moth (Cydia pomonella) in apples” (2011).
Calls of active or inactive are those of the source. The calls are words filed in the database; no cut-off is given here.

Assays:
Cydia pomonella [1] = experiment: Inhibition of fruit-infesting behavior of Cydia pomonella (codling moth) neonates infested in apple fruit plugs assessed as feeding deterrence index at 1 mg/mL; assay type: functional
Cydia pomonella [2] = experiment: Inhibition of fruit-infesting behavior of Cydia pomonella (codling moth) neonates infested in apple fruit plugs assessed as feeding deterrence index at 0.1 mg/mL; assay type: functional
Cydia pomonella [3] = experiment: Inhibition of fruit-infesting behavior of Cydia pomonella (codling moth) neonates infested in apple fruit plugs assessed as feeding deterrence index at 10 mg/mL; assay type: functional
Cydia pomonella [4] = experiment: Inhibition of fruit-infesting behavior of Cydia pomonella (codling moth) neonates infested in apple fruit plugs assessed as feeding deterrence index at 30 mg/mL; assay type: functional, organism-based
Cydia pomonella [5] = experiment: Inhibition of fruit-infesting behavior of Cydia pomonella (codling moth) neonates infested in apple fruit plugs assessed as feeding deterrence index at 5 mg/mL; assay type: functional
Cydia pomonella [6] = experiment: Inhibition of fruit-infesting behavior of Cydia pomonella (codling moth) neonates infested in apple fruit plugs assessed as feeding deterrence index at 0.2 mg/mL; assay type: functional
Cydia pomonella [7] = experiment: Inhibition of fruit-infesting behavior of Cydia pomonella (codling moth) neonates infested in apple fruit plugs assessed as feeding deterrence index at 0.5 mg/mL; assay type: functional
Cydia pomonella [8] = experiment: Inhibition of fruit-infesting behavior of Cydia pomonella (codling moth) neonates infested in apple fruit plugs assessed as feeding deterrence index at 2 mg/mL; assay type: functional
Cydia pomonella [9] = experiment: Inhibition of fruit-infesting behavior of Cydia pomonella (codling moth) neonates infested in apple fruit plugs assessed as feeding deterrence index at 0.001 mg/mL; assay type: functional
Cydia pomonella [10] = experiment: Inhibition of fruit-infesting behavior of Cydia pomonella (codling moth) neonates infested in apple fruit plugs assessed as feeding deterrence index at 0.01 mg/mL; assay type: functional
Cydia pomonella [11] = experiment: Inhibition of fruit-infesting behavior of Cydia pomonella (codling moth) neonates infested in apple fruit plugs assessed as feeding deterrence index at 3 mg/mL; assay type: functional
Cydia pomonella [12] = experiment: Inhibition of fruit-infesting behavior of Cydia pomonella (codling moth) neonates infested in apple fruit plugs assessed as feeding deterrence index at 60 mg/mL; assay type: functional, organism-based

| SMILES | FDI (Cydia pomonella [1]) | FDI (Cydia pomonella [2]) | FDI (Cydia pomonella [3]) | FDI (Cydia pomonella [5]) [%] | FDI (Cydia pomonella [7]) [%] | also measured |
| --- | --- | --- | --- | --- | --- | --- |
| O=c1c(O)c(-c2ccc(O)c(O)c2)oc2cc(O)cc(O)c12 | inactive | inactive | inactive | – | – | FDI (Cydia pomonella [4]): inactive |
| CCCCCCCCCCCCCCCc1cccc(O)c1C(=O)O [ANACARDIC ACID] | 91.7% | – | – | 81.8 | 26.7 | FDI (Cydia pomonella [6]): 25%; FDI (Cydia pomonella [8]): 73.7% |
| CC(C)(C)[C@]1(O)CC2OC(=O)CC23C(=O)OC2OC(=O)[C@H](O)C231 (some centres undefined) [BILOBALIDE] | 50% | 56.5% | 75% | – | – | FDI (Cydia pomonella [9]): 0%; FDI (Cydia pomonella [10]): 23.5% |
| CCCCCC/C=C\CCCCCCCc1cccc(O)c1C(=O)O [GINGKOLIC ACID] | 41.7% | – | 63.2% | 50 | 18.8 | – |
| CCCCCCCCCCCCCc1cccc(O)c1C(=O)O [GINKGOLIC ACID 13:0] | 26.1% | – | 42.1% | 0 | 23.5 | – |
| CCCCCC/C=C\CCCCCCCCCc1cccc(O)c1C(=O)O [GINKGOLIC ACID 17:1] | 5.3% | – | 60% | 54.5 | 37.5 | – |
| C[C@@H]1C(=O)O[C@H]2C[C@@]34[C@H]5C[C@@H](C(C)(C)C)[C@]36[C@@H](OC(=O)[C@@H]6O)O[C@@]4(C(=O)O5)[C@]21O [GINKGOLIDE A] | 40.4% | 7.69% | 38.5% | – | – | – |
| C[C@@H]1C(=O)O[C@H]2[C@H](O)[C@@]34O[C@@H]5OC(=O)[C@H](O)[C@@]56[C@H](C(C)(C)C)[C@H](O)C(OC3=O)[C@]64[C@@]12O (some centres undefined) [GINKGOLIDE C] | 20% | 11.8% | 10% | – | – | – |
| C[C@@H]1C(=O)O[C@H]2[C@H](O)[C@@]34[C@H]5C[C@@H](C(C)(C)C)[C@]36[C@@H](OC(=O)[C@@H]6O)O[C@@]4(C(=O)O5)[C@@]12O [GINKOLIDE B] | 26.1% | 12.5% | 76% | – | – | – |
| COc1cc(-c2oc3cc(O)cc(O)c3c(=O)c2O)ccc1O [ISORHAMNETIN] | inactive | 10.3% | – | – | – | FDI (Cydia pomonella [11]): 32.1%; FDI (Cydia pomonella [10]): 21.7% |
| O=c1c(O)c(-c2ccc(O)cc2)oc2cc(O)cc(O)c12 [KAEMPFEROL] | 25% | inactive | inactive | – | – | FDI (Cydia pomonella [4]): inactive; FDI (Cydia pomonella [12]): inactive |
